Source: publication PMC7219108, “Pisum sativum Defensin 1 Eradicates Mouse Metastatic Lung Nodules from B16F10 Melanoma Cells” (International Journal of Molecular Sciences, 2020)

Columns and labels:
C57BL/6 mice = assay: Toxicity observation in mice given Psd1 alone; type: in vivo
Experimental: (§1) Another group of animals received 1 mg/kg of Psd1 only (n = 9) to evaluate Psd1 toxicity. Twenty-one days later, the animals were anaesthetized and sacrificed, and the black lung melanoma nodules were counted and measured under a dissecting microscope (Zeiss AxioPhot fluorescence microscope (Carl-Zeiss, Oberkochen, Germany)).

B16F10 cells = assay: Flow cytometry-based apoptosis detection (sub-G0/G1 DNA content); type: cell-based, murine; settings: 50 µM, 24 h, propidium iodide; control Sub-G1 4.4%
Experimental: Figure 2 Psd1 promotes B16F10 live cell membrane permeabilization as monitored by SYTOX Green fluorescence. (A) Psd1 untreated and hydrogen peroxide-treated B16F10 cells. (B) A total of 1.5 × 10^4 B16F10 cells were incubated with 3 or 50 µM Psd1 for 30 min. (C) 1.5 × 10^4 B16F10 cells were incubated with 50 µM Psd1 for 1 h. All experiments were performed at 37 °C. Nucleus staining is shown in green (SYTOXGreen), and mitochondria are shown in red (MitoTracker Red CMXRos). Images are shown at 20× magnification. […] (E) Psd1 induces apoptosis in B16F10 cells. B16F10 cells were treated with 50 µM Psd1 for 24 h and labeled with propidium iodide, and the DNA content was analyzed by flow cytometry for the sub-G0/G1 profile. At least two independent experiments were performed. TEXT PRINTED IN THE PICTURE: (E) Control: Sub-G1: 4.4% | (E) Psd1: Sub-G1: 60.6% (50μM)
B16F10 cells (4 × 10^5 cells) were treated with 50 μM Psd1 for 24 h. After treatment, the cells were trypsinized, centrifuged, and washed twice with phosphate-buffered saline (PBS). The cells were then stained with Nicoletti buffer (0.1% sodium citrate, 0.1% NP-40, 200 μg/mL RNase, and 50 μg/mL propidium iodide). Doublets and debris were identified and excluded. Analysis of the DNA content was performed by collecting 20,000 events using a BD FACSCalibur flow cytometer (BD Biosciences, San Jose, CA, USA). […]

[1] = Body weight of mice in the B16F10 metastasis experiment; type: in vivo, mouse; settings: 0.1, 1 and 3 mg/kg Psd1 i.v. with B16F10 cells, 21 days; animals with B16F10 only lost weight
Source text: Figure 6 Protective effects of Psd1 on a model of experimental lung metastasis in vivo. B16F10 mouse melanoma tumors were established by intravenous injection of 2.5 × 10^5 B16F10 cells into C57BL/6 mice. (A) After 21 days, mice from each experimental group were sacrificed, and the number of visible lung metastatic nodules was quantified. Treatment of the animals inoculated with melanoma cells plus Psd1 caused a dose-dependent reduction in the number of lung metastases. Black lines represent the mean ± SEM of two independent experiments analyzed by one-way ANOVA and Bonferroni’s multiple comparison test. **** p < 0.0001 B16F10 vs. phosphate buffer solution (PBS); **** p < 0.0001 B16F10 vs. Psd1 1 mg/kg; **** p < 0.0001 B16F10 vs. just Psd1 1 mg/kg (without B16F10 cells); *** p < 0.001 B16F10 vs. Psd1 3 mg/kg; * p < 0.05 B16F10 vs. Psd1 0.5 mg/kg. (B) Representative images of lung metastatic nodules from animals that received just PBS or B16F10 cells alone or together with 0.1 mg/kg or 1 mg/kg Psd1. Bar = 2 mm. (C) Animal weights were acquired every two days. Weight variation was calculated as (weight on that day (weight of the first day × 100 − 100)). Only the days with higher weight differences between animals injected with only B16F10 cells and those that received cells plus Psd1 or PBS alone are represented. […]

[2] = system: B16F10 melanoma cells in C57BL/6 mice; assay: Experimental B16F10 melanoma lung metastasis, nodule count; type: in vivo; settings: for Lung nodules: day 21, mean ± SEM
Source text: Figure 6 Protective effects of Psd1 on a model of experimental lung metastasis in vivo. B16F10 mouse melanoma tumors were established by intravenous injection of 2.5 × 10^5 B16F10 cells into C57BL/6 mice. (A) After 21 days, mice from each experimental group were sacrificed, and the number of visible lung metastatic nodules was quantified. Treatment of the animals inoculated with melanoma cells plus Psd1 caused a dose-dependent reduction in the number of lung metastases. Black lines represent the mean ± SEM of two independent experiments analyzed by one-way ANOVA and Bonferroni’s multiple comparison test. **** p < 0.0001 B16F10 vs. phosphate buffer solution (PBS); **** p < 0.0001 B16F10 vs. Psd1 1 mg/kg; **** p < 0.0001 B16F10 vs. just Psd1 1 mg/kg (without B16F10 cells); *** p < 0.001 B16F10 vs. Psd1 3 mg/kg; * p < 0.05 B16F10 vs. Psd1 0.5 mg/kg. (B) Representative images of lung metastatic nodules from animals that received just PBS or B16F10 cells alone or together with 0.1 mg/kg or 1 mg/kg Psd1. Bar = 2 mm. (C) Animal weights were acquired every two days. Weight variation was calculated as (weight on that day (weight of the first day × 100 − 100)). Only the days with higher weight differences between animals injected with only B16F10 cells and those that received cells plus Psd1 or PBS alone are represented. All of the values represent the mean ± SEM of two independent experiments analyzed by two-way ANOVA. *** p < 0.001 B16F10 vs. PBS at […]; *** p < 0.001 B16F10 vs. Psd1 0.1 mg/kg at 9 weeks; ** p < 0.01 B16F10 vs. Psd1 0.1 mg/kg at 13 weeks; *** p < 0.001 B16F10 vs. Psd1 1 mg/kg at 9 and 13 weeks; ** p < 0.01 B16F10 vs. Psd1 1 mg/kg at 17 weeks; * p < 0.05 B16F10 vs. Psd1 1 mg/kg at 7 weeks; *** p < 0.001 B16F10 vs. Psd1 3 mg/kg at 7 and 9 weeks.
Eight-week-old C57BL/6 female mice (CEMIB, Campinas–Brasil) weighing approximately 20 g were individually marked and separated according to their experimental groups. These animals were kept in cages 20 cm × 35 cm × 15 cm (width × length × height) with free access to water and food under day and night cycles that lasted twelve hours with a controlled temperature (20–25 °C) in our own facilities. This study was approved by the Ethics Committee on the Use of Animals of Health Science Centre of the Federal University of Rio de Janeiro, Brazil (CEUA/CCS/UFRJ, CONCEA registered number 01200.001568/2013.87, approved protocol IBCCF 163 at 28 August 2012). All animals received humane care in compliance with the “Principles of Laboratory Animal Care” formulated by the National Society for Medical Research and the “Guide for the Care and Use of Laboratory Animals” prepared by the National Academy of Sciences, USA, and the National Council for Controlling Animal Experimentation, Ministry of Science, Technology and Innovation (CONCEA/MCTI), Brazil.
Mice were injected via the lateral tail vein with 100 µL of PBS only (137 mM NaCl, 2.7 mM KCl, 10 mM Na2HPO4, 2 mM KH2PO4, pH 7.4) (n = 17) or 100 µL of B16F10 cells (2.5 × 10^5 cells/animal suspended in DMEM) (n = 15). Other groups of animals were intravenously co-injected with a freshly prepared, in order to avoid B16F10 cells death, mix of B16F10 cells plus 0.1 mg/kg (n = 8), 0.5 mg/kg (n = 8), 1 mg/kg (n = 17), or 3 mg/kg Psd1 (n = 7).
as §1

[3] = system: Beas-2B (bronchial human respiratory epithelial) cells; assay: MTT cell viability, healthy Beas-2B cells; type: cell-based; settings: 3.125-50 µM, 24, 48 and 72 h

With “Psd1: 46-amino acid residue plant defensin isolated from pea seeds, expressed in Pichia pastoris (PDB 1JKZ) (KTCEHLADTYRGVCFTNASCDDHCKNKAHLISGTCHNWKCFCTQNC)” the “Inflammation in lung tissue, weight or vital signal losses” value (C57BL/6 mice; 1 mg/kg Psd1 alone, over 21 days) was “did not provoke inflammation in lung tissue or weight or vital signal losses over 21 days”, the “Behavior signals / mortality” value (C57BL/6 mice; Psd1 alone (1 mg/kg i.v.), vs PBS) was “did not present changes in important behavior signals, such as changes in locomotion, piloerection, diarrhea, or mortality” and the “Sub-G0/G1 (sub-G1) cells” value (B16F10 cells) was 60.6%. The Body weight [1] was “gained weight throughout the assay”, the “Number of lung nodules, result in words” value ([2]; 0.1 mg/kg i.v., day 21) was “not effective in reducing the number of nodules” and the “Size of lung nodules, result in words” value ([2]; 0.1 mg/kg i.v., day 21, data not shown) was “effective in reducing their size”. The Lung nodules ([2]; 0.5 mg/kg i.v. co-injected with B16F10 cells, B16F10 only average 43 nodules, p < 0.05) was 10.2 ± 2.6 nodules, the “Decrease of number of pulmonary nodules” value ([2]; 0.5 mg/kg i.v., day 21) was 75% and the “Lung nodules in animals without B16F10 cells” value ([2]; 1.0 mg/kg Psd1 alone, i.v., day 21) was “did not present lung nodules”. The Lung nodules ([2]; 1.0 mg/kg i.v. co-injected with B16F10 cells, p < 0.0001) was 4.82 ± 1.88 nodules, the “Decrease of number of pulmonary nodules” value ([2]; 1.0 mg/kg i.v., day 21) was 88% and the Lung nodules ([2]; 3.0 mg/kg i.v. co-injected with B16F10 cells, p < 0.001) was 0.14 ± 0.14 nodules. For the same substance, the “Tumor development, result in words” value ([2]; 3.0 mg/kg i.v., day 21) was “completely abolished tumor development”, the “Lung metastasis nodules, result in words” value ([2]; i.v., above 0.5 mg/kg) was “completely inhibited the formation of B16F10 lung metastasis nodules” and the “Lowest dose with significant reduction of lung metastasis colonization” value ([2]; i.v., day 21, dose-dependent) was 0.5 mg/kg. The “Beas-2B cell viability (MTT)” value [3] was “no alteration in cell viability was observed even after 72 h of exposure”.
